Measurements published in patent US20070032502A1, “Quinazoline derivatives useful in cancer treatment” (Schering Corporation, priority 2005, published 2007).
Like-named read-outs stand apart in the source and are kept apart here. Blank lines part the entries; values can stand above or below the compound they belong to.

Experiments:
pancreatic cells = experiment: Potentiation of growth suppression with temozolomide (proliferation assay, temozolomide IC50); format: cell-based; conditions: for IC50: Homo sapiens, TMZ alone
Description: (§1) That the compounds of the present invention potentiate the growth suppression activity of temozolomide is illustrated by the fact that the compounds lower the temolozomide IC50 in various cell lines. The proliferation assay used is similar to that set forth above, and comprises the following general steps. • TMZ is diluted 2 fold in complete medium. • Cells are harvested and placed in each well with diluted TMZ. Cell conc. is 5000 cells per well in complete medium. • Appropriate concentration of compounds of present invention are then added to each well in combination with diluted TMZ. • Plates are incubated at 37° C. for 72 hrs. • Medium is poured off and 50 μL per well of Calcein AM (10 uM is added. Plate is then read in the fluorescent plate reader.
The extent of increase can be quantitated as is shown below in FIG. 5.

LN 18 = experiment: Potentiation of growth suppression with temozolomide (proliferation assay, temozolomide IC50), LN 18 glioma cells; format: cell-based; conditions: Homo sapiens, p53 mutant, TMZ alone
Description: as §1

U87 = experiment: Potentiation of growth suppression with temozolomide (proliferation assay, temozolomide IC50), U87 glioma cells; format: cell-based; conditions: Homo sapiens, U-87 MG, p53 wild, TMZ alone
Description: as §1

[1] = target: GST-p53 DNA binding domain (aa 92-aa 312) (Homo sapiens, UniProt P04637); experiment: Scintillation Proximity Assay (SPA), displacement of 3H STANDARD COMPOUND; conditions: for remaining activity at 2 µg/mL: 1 h
Sequence of GST-p53 DNA binding domain (aa 92-aa 312) (P04637 92-312): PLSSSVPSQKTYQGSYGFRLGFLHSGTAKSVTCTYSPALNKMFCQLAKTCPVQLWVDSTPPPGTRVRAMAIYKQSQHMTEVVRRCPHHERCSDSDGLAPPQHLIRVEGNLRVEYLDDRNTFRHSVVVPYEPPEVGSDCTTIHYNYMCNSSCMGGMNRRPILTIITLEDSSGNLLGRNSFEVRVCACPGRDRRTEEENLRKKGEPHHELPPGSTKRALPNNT
Source text: Most of the oncogenic mutants of the tumor suppressor protein p53 lack sequence specific DNA binding activity at physiological temperature due to conformational changes in the DNA binding domain. Small molecules and peptide which bind to the p53 DNA binding domain stabilize the conformation and restore DNA binding activity to mutant p53 protein (Science 286, 2507-2510, 1999; PNAS, 99, 937-942, 2002). Using ^3H STANDARD COMPOUND (which is ^3H of the compound #1 of the present invention; the * Carbon atom is the one labeled; structure shown below), [drawing 2234] a radio labeled small molecule which binds to p53, and the GST-p53 DNA binding domain (aa 92-aa 312), we have developed a quantitative screening assay. The assay is based on Scintillation Proximity Assay (SPA) technology, developed by Amersham Biosciences to measure molecular interactions. Briefly, the complex of GST-p53, ^3H STANDARD and Glutathione-SPA beads (Amersham Biosciences) are incubated with mixing for 1 hr at room temperature in the presence of the novel compounds to be screened. The signal is read on Microbeta. The compounds which have the ability to displace ^3H STANDARD COMPOUND are selected. Such molecules will stabilize the conformation and restore DNA binding activity to mutant p53 protein.
The above assay was used to determine the ability of the compounds of this invention to restore DNA binding activity to mutant p53 and the results for selected compounds have been given above in various tables.
A letter rating corresponding to % Residual total binding (T) @ 2 ug/mL of drug (i.e., compound of the present invention) from this assay have been assigned as follows: Compounds having % Residual T values of from 0% to less than 20% have been assigned the letter “A”. Compounds having % Residual T values of from 20% to less than 40% have been assigned the letter “B”. Compounds having % Residual T values of from 40% to less than 80% have been assigned the letter “C”. Compounds having % Residual T values of 80% or higher have been assigned the letter “D”. The exact % Residual T values @ 2 ug/mL for some illustrative compounds are shown below: […]

MB468 = experiment: Proliferation assay (Calcein AM viability, 72 hours); format: cell-based
Description: This assay measures the growth suppression effects of small molecules in cells with mutant p53 vs. p53 null background. It uses Calcein AM to measure cellular viability. Cells (p53 null and mutant) are harvested and plated at 5000 cells per well in a 96-well tissue culture plate. The volume of cells in growth media is 100 µl. Serial dilutions (2× concentration) of compounds are then made and transferred to the plate of cells. The volume of compounds in the growth media is 100 μL. This dilution of compound with cells gives a 1× final dilution of compound (200 μL total volume). Plates are then incubated at 37° C. for 72 hours. Media is then poured off and Calcein AM is added at the appropriate concentration and the plates are incubated in the dark for 15 minutes and read for fluorescence. […] Compounds having EC50 values of 6 uM or higher have been assigned the letter “D”. These letter rating has been used throughout in the data tables above.

[2] = test system: Human tumor DLD1 cells containing mutant p53; experiment: Soft agar assay (colony outgrowth); format: cell-based; conditions: DLD-1, 10-16 days
Description: This method assesses the ability of cells to grow in the absence of adhesion, which is a characteristic of tumorigenic cell lines.
Human tumor DLD1 cells containing mutant p53 are suspended in growth medium containing 0.3% agarose and an indicated concentration of small molecule. The solution is overlayed onto growth medium solidified with 0.6% agarose containing the same concentration of the small molecule as the top layer. After the top layer is solidified the plates are incubated for 10-16 days at 37° C. under 5% CO2 to allow colony outgrowth. After incubation, colonies are stained by overlaying the agar with a solution of MTT (3-[4,5-dimethyl-thiazol-2-yl]-2,5-diphenyltetrazolium bromide; Thiazolyl blue; […] in PBS). Colonies are counted to measure growth and efficacy of the small molecule.

[3] = 2 ug/mL of drug, lower is better, read-out: SPA ASSAY % Residual T @ 2 ug/mL of drug (Average of)
[4] = 72 h, MB468 cells, 72 hours, read-out: PROLIFERATION ASSAY EC50 MB468
[5] = read-out: SPA ASSAY (% residual T @ 2 ug/mL of drug)
[6] = MB468, read-out: PROLIFERATION ASSAY EC50 MB468

remaining activity at 2 µg/mL [1, 3]: 27.9%
SMILES: CN(C)CCCNc1nc(CN2CCN(Cc3cccc4ccccc34)CC2)nc2ccccc12 [Example 25-36]
SPA Assay (% residual T @ 2 ug/mL of drug) ([1]; 2 ug/mL of drug): B (Compounds having % Residual T values of from 20% to less than 40% have been assigned the letter “B”) | sensitivity of pancreatic cancer cells to temozolomide (pancreatic cells; in combination with temozolomide, 72 hrs): increase in sensitivity | EC50 (MB468; [4]): 2 µM | EC50 (MB468; MB468 cells, read-out: PROFILE-RATION ASSAY EC50 MB468): 4 to 6 µM

remaining activity at 2 µg/mL [1, 5]: > 80%
SMILES: OC1CCN(c2nc(CN3CCN(C(c4ccc(Cl)cc4)c4ccc(Cl)cc4)CC3)nc3ccccc23)C1 (stereo not drawn) [Example 30-4]
EC50 (MB468; [6]): > 6 µM

remaining activity at 2 µg/mL [1, 5]: > 80%
SMILES: NC(=O)C1CCN(c2nc(CN3CCN(C(c4ccc(Cl)cc4)c4ccc(Cl)cc4)CC3)nc3ccccc23)CC1 [Example 30-28]
EC50 (MB468; [6]): > 6 µM

remaining activity at 2 µg/mL [1, 5]: > 80%
SMILES: O=C(C1CCCO1)N1CCN(c2nc(CN3CCN(C(c4ccc(Cl)cc4)c4ccc(Cl)cc4)CC3)nc3ccccc23)CC1 (stereo not drawn) [Example 30-22]
EC50 (MB468; [6]): > 6 µM

remaining activity at 2 µg/mL [1, 5]: > 80%
SMILES: CN(CCc1ccccn1)c1nc(CN2CCN(C(c3ccc(Cl)cc3)c3ccc(Cl)cc3)CC2)nc2ccccc12 [Example 30-14]
EC50 (MB468; [6]): 4 to 6 µM

remaining activity at 2 µg/mL [1, 5]: > 80%
SMILES: CCN(CC)C(=O)C1CCCN(c2nc(CN3CCN(C(c4ccc(Cl)cc4)c4ccc(Cl)cc4)CC3)nc3ccccc23)C1 (stereo not drawn) [Example 30-25]
EC50 (MB468; [6]): > 6 µM

Further lines, the compound ahead of its results:

SMILES: Cn1nnc2c(C(N)=O)ncn2c1=O [TMZ, temozolomide]
IC50 (pancreatic cells; MIA PaCa-2, Miapaca-2, Pancreas, p53 mutant): 3320 µM | IC50 (pancreatic cells; Capan-1, Pancreas, p53 mutant): 2860 µM | IC50 (pancreatic cells; Capan-2, Pancreas, p53 wild): 4310 µM | IC50 (LN 18): 2700 µM | IC50 (U87): 2540 µM

SMILES: CN(C)CCCNc1nc(CN2CCN(C(c3ccc(Cl)cc3)c3ccc(Cl)cc3)CC2)nc2ccccc12 [Example 1, N′-(2-{4-[BIS-(4-CHLOROPHENYL)METHYL]PIPERAZIN-1-YLMETHYL}QUINAZOLIN-4-YL)-N,N-DIMETHYLPROPANE-1,3-DIAMINE]
remaining activity at 2 µg/mL ([1]; 2 ug/mL of drug, lower is better, read-out: % Residual T @ 2 ug/mL rating according to scintillation proximity assay (SPA)): 0 to 20% | remaining activity at 2 µg/mL [1, 3]: 16.1% | EC50 (MB468; 72 h, MB468 cells, 72 hours, read-out: EC50 rating according to the proliferation assay (MB468)): < 2 µM | EC50 (MB468; [4]): 1.1 µM | IC50 [2]: 0.39 µM

SMILES: CN(C)CCCNc1nc(CN2CCN(C(c3ccccc3)c3ccc(OC(F)(F)F)cc3)CC2)nc2ccccc12 (stereo not drawn) [Example 11-1]
remaining activity at 2 µg/mL [1, 3]: 27.9% | EC50 (MB468; MB468 cells, 72 hours, read-out: PROLIFERATION ASSAY EC50 MB468): 1.4 µM
